Laboratory results from PMC6245549 (Journal of medicinal chemistry, 2018).

Legend:
A549-NF-κB-luc cells = assay: NF-κB luciferase reporter assay
kinases = conditions: 100 nM; no reference given; cited from earlier work
p38β = p38β (Homo sapiens, UniProt Q15759); assay: DiscoverX kinase-selectivity profiling, p38β; assay type: binding; conditions: 1 μM, DiscoverX platform
p38α [1] = molecular target: T1, p38α (Homo sapiens, UniProt Q16539); assay: DiscoverX kinase-selectivity profiling, p38α; assay type: binding; conditions: 1 μM, DiscoverX platform
c-Myc = assay: Western blot of c-Myc levels in MM.1S cells; assay type: cell-based; conditions: 6 h, concentrations approaching BRD4(1) Kd
BPTF = BPTF (Homo sapiens, UniProt Q12830); assay: Protein-observed fluorine NMR; assay type: binding
[2] = test system: MSK1 phosphorylation at T581; assay: Phosphorylation state of MSK1; assay type: cell-based
BRDT(1) = BRDT(1) (Homo sapiens, UniProt Q58F21); assay: Protein-observed fluorine NMR; assay type: binding; conditions: 50 μM 19F-labeled protein, W50
A549 cells = assay: Cytotoxicity toward A549 cells; assay type: cell-based
p38α [3] = molecular target: T1, p38α; assay: Cellular thermal-shift assay; assay type: cell-based; conditions: A549 cells, isothermal denaturation, dose-dependent
[4] = test system: yeast GCN5-like malarial protein (pfGCN5); assay: Protein-observed fluorine NMR; assay type: binding
BET D2s = assay: DiscoverX bromodomain-selectivity profiling, BET D2s; assay type: binding, human; conditions: 10 μM
BRD4(1) [5] = molecular target: T2, BRD4(1) (Homo sapiens, UniProt O60885); assay: Isothermal-titration calorimetry; assay type: binding
BRD4(1) [6] = molecular target: T2, BRD4(1); assay: Fluorescence anisotropy, BRD4
BRD4(2) = BRD4(2) (Homo sapiens, UniProt O60885); assay: Fluorescence anisotropy, BRD4
IL-8 [7] = assay: IL-8 ELISA; assay type: cell-based; conditions: Homo sapiens, read-out: Inhibition of IL-8 cytokine production
BRD4(1) [8] = molecular target: T2, BRD4(1); assay: Protein-observed fluorine NMR; assay type: binding
BRD4 D1 = BRD4 D1 (Homo sapiens, UniProt O60885); assay: ALPHAScreen, BRD4 D1
IL-8 [9] = conditions: 20 μM; cited from earlier work

T1 sequence (Q16539 whole entry): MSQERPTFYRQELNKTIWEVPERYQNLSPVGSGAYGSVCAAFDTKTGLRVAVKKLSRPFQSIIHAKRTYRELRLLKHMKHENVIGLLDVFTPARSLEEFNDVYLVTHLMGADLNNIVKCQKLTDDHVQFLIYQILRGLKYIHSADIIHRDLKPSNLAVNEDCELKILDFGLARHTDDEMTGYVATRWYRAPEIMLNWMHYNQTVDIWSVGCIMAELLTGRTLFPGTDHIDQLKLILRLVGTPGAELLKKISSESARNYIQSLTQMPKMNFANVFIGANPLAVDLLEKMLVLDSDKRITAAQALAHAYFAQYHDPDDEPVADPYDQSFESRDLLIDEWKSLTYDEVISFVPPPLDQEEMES
p38β, sequence (Q15759 whole entry): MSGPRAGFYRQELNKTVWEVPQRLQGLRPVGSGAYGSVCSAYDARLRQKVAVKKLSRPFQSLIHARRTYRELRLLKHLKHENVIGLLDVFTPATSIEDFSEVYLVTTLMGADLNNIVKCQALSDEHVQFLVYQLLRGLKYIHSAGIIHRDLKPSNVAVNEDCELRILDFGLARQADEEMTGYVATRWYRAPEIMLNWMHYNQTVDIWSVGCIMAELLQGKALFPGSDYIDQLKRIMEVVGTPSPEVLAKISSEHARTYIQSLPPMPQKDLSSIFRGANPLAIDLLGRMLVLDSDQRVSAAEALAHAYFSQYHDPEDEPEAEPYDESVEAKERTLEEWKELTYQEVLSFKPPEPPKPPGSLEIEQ

With `NC(=O)c1ccc(N(C(N)=O)c2c(F)cccc2F)nc1-c1ccc(F)cc1F` [VX-702] the “Inhibition in NF-κB reporter assay, in words” value (A549-NF-κB-luc cells) was “limited inhibitory effects”.
In the case of `C[S+]([O-])c1ccc(-c2nc(-c3ccc(F)cc3)c(-c3ccncc3)[nH]2)cc1` (centres unmarked) [SB203580], the Kinase selectivity score (kinases) is given as 0.024.
With `Cc1cc(C)cc(Nc2nccc(-c3c(-c4ccc(F)cc4)ncn3C3CCNCC3)n2)c1` [Compound V, N-(3,5-Dimethylphenyl)-4-(4-(4-fluorophenyl)-1-(piperidin-4-yl)-1H-imidazol-5-yl)pyrimidin-2-amine] the “Inhibitory activity against p38β, in words” value (p38β) was “high inhibitory activity”, the “Inhibitory activity against p38α, in words” value (p38α [1]) was “high inhibitory activity” and the “Expression of c-Myc oncoprotein, in words” value (c-Myc) was “inhibited expression”. For the same molecule, the “Binding to BPTF by PrOF NMR, in words” value (BPTF) was “did not detect binding”, the “MSK1 phosphorylation at T581, in words” value [2] was “decrease in levels of MSK1 phosphorylation” and the “Small molecule needed to reach fully bound state of WPF-shelf resonance, BRDT(1)” value (BRDT(1)) was “approximately 1 equiv”. The “Concentration up to which cytotoxicity toward A549 cells is minimal” value (A549 cells) was at most 10 µM, the “Concentration above which p38α is stabilized (CETSA)” value (p38α [3]) was over 1 nM and the “Binding to GCN5-like malarial protein by PrOF NMR, in words” value [4] was “did not detect binding”. The “Inhibition of BET D2s, DiscoverX” value (BET D2s) was 7−27%.
For `Cc1ccc(Nc2nccc(-c3c(-c4ccc(F)cc4)ncn3C3CCNCC3)n2)cc1C` [Compound IV, N-(3,4-Dimethylphenyl)-4-(4-(4-fluorophenyl)-1-(piperidin-4-yl)-1H-imidazol-5-yl)pyrimidin-2-amine], the “Expression of c-Myc oncoprotein, in words” value (c-Myc) was “inhibited expression”, the “Entropy of binding in ITC” value (BRD4(1) [5]) was 5.0 cal/mol/°C and the “MSK1 phosphorylation at T581, in words” value [2] was “decrease in levels of MSK1 phosphorylation”. The “Concentration up to which cytotoxicity toward A549 cells is minimal” value (A549 cells) was at most 25 µM.
With `Fc1ccc(-c2ncn(C3CCNCC3)c2-c2ccnc(Oc3cc(F)cc(F)c3)n2)cc1` [Compound VI, 2-(3,5-Difluorophenoxy)-4-(4-(4-fluorophenyl)-1-(piperidin-4-yl)-1H-imidazol-5-yl)pyrimidine] the “Binding to BRD4(1), in words” value (BRD4(1) [6]) was “only bound weakly” and the “Binding to BRD4(2) / displacement of BI-BODIPY, in words” value (BRD4(2)) was “only bound weakly”.
For `Cc1sc2c(c1C)C(c1ccc(Cl)cc1)=N[C@@H](CC(=O)OC(C)(C)C)c1nnc(C)n1-2` [(+)-JQ1, reference compound], the inhibition at 1 µM (IL-8 [7]) was 63% and the “MSK1 phosphorylation at T581, in words” value [2] was “not observed”.
In the case of `Cc1cc(C)cc(Nc2nccc(-c3c(-c4ccc(F)cc4)nnn3C3CCNCC3)n2)c1` [VII, N-(3,5-Dimethylphenyl)-4-(4-(4-fluorophenyl)-1-(piperidin-4-yl)-1H-1,2,3-triazol-5-yl)pyrimidin-2-amine], the “Binding to BRD4(1) by PrOF NMR, in words” value (BRD4(1) [8]) is reported as “bound BRD4(1) in a manner similar to that of compound V”.
In the case of `Cc1cc(C)cc(Nc2nccc(-c3c(C)nnn3C3CCNCC3)n2)c1` [IX, N-(3,5-Dimethylphenyl)-4-(4-methyl-1-(piperidin-4-yl)-1H-1,2,3-triazol-5-yl)pyrimidin-2-amine], the “Enhancement of binding to BRD4(1) relative to VII” value (BRD4 D1) is reported as 20 fold.
In the case of `C=C1C(=O)O[C@H]2[C@H]1CC/C(C)=C/CC[C@@]1(C)O[C@@H]21` [parthenolide], the “IL-8 production, in words” value (IL-8 [9]) is given as “decreased IL-8 production to baseline”.
